From paper PMC3365829 (ACS medicinal chemistry letters, 2012)

Assay: In vivo pharmacokinetics in mice
Details: mouse, iv, 3 mg/kg

CCCCNc1ncc2c(-c3ccc(F)cc3)nn(C[C@H]3CC[C@H](N)CC3)c2n1 [Compound 43]
clearance: 19.5 mL/min/kg
